Here are results for two compounds from patent publication US11400059B2, “Treatment of pain and/or pain related symptoms associated with dysmenorrhea” (ALYRA BIOTECH PTY LTD, priority 2017, dated 2022).

What all share (format): cell-based
The subject of series [1] is HEK293/Null1 and HEK293/Null2. In words: Antagonist screening on TLR−/NLR− control cell lines stimulated with TNFa. The conditions noted are these: stimulated with TNFa at 10 ng/mL. The protocol: (§1) Toll-Like Receptor (TLR), NOD-Like Receptor (NLR) and C-Type Lectin Receptor (CLR) stimulation were tested by assessing NF-κB activation in HEK293 cells expressing a given TLR, NLR or CLR. The activity of the test articles was tested at one concentration and compared to control ligands. These steps were performed in triplicate. In a 96-well plate (200 μL total volume) containing the appropriate cells (50,000-75,000 cells/well), 20 μL of the test article or the positive control ligand was added to the wells. For the antagonist assay, the test article was incubated with the cells, at 37° C. with 5% CO2, for 30 minutes prior to the addition of the positive control ligand to the wells. The media added to the wells was designed for the detection of NF-κB induced SEAP expression. After a 16-24 hr incubation the optical density (OD) was read at 650 nm on a Molecular Devices SpectraMax 340PC absorbance detector.

Another series has as its target T1, Human TLR3 (Homo sapiens, UniProt O15455).
T1 construct: expressed in transfected cells; host or cells: HEK293
T1 sequence (O15455 24-904): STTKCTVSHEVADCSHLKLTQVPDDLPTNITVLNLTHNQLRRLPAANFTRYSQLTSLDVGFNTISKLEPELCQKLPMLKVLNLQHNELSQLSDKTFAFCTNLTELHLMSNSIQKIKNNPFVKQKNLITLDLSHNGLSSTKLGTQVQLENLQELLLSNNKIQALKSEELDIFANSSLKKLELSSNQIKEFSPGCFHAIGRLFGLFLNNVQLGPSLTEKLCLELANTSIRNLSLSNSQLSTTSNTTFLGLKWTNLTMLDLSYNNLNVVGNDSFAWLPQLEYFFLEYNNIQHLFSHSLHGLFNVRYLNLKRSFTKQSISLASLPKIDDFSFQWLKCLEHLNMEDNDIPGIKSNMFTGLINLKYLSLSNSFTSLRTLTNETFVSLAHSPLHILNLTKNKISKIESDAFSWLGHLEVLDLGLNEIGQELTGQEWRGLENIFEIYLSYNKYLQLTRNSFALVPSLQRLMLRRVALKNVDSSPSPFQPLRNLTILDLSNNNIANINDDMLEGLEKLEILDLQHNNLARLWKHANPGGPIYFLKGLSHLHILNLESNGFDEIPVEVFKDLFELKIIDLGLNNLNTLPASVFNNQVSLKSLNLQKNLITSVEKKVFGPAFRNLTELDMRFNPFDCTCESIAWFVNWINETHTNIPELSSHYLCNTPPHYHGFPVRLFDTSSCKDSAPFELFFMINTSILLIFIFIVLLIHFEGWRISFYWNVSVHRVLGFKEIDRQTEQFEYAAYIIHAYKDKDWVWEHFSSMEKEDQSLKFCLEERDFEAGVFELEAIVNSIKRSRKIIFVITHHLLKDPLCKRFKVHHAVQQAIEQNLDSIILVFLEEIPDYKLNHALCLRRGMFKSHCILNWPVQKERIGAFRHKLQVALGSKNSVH
In words: Human TLR antagonist screening, NF-κB SEAP reporter in HEK293 cells. To be noted: antagonist mode, test article 1 μM, +Poly(I:C) 50 ng/ml, No Sample 14, Control− 1. The procedure:
as §1, with “triplicate. hTLR3: Poly(I:C) HMW at 1 μg/mL Antagonist: 50 ng/mL.” for “triplicate.”, “detector. Fold induction (ratio of average induced value to average non-induced value) was determined for each TLR, NOD1, NOD2, Dectin-1a, Dectin-1b.” for “detector.”

Another series concerns the target T2, Human TLR4 (Homo sapiens, UniProt O00206+Q9Y6Y9).
T2 construct: expressed in transfected cells; host or cells: HEK293
The series is described as above. To be noted: antagonist mode, test article 1 μM, +LPS-EK 10 ng/mL, No Sample 14, Control− 1. The procedure:
as §1, with “triplicate. hTLR4: […]” for “triplicate.”, “detector. Fold induction (ratio of average induced value to average non-induced value) was determined for each TLR, NOD1, NOD2, Dectin-1a, Dectin-1b.” for “detector.”

The target in a further series is T3, human Mincle (Homo sapiens, UniProt Q9ULY5).
T3 construct: expressed in transfected cells; host or cells: HEK293
T3 sequence (Q9ULY5 whole entry): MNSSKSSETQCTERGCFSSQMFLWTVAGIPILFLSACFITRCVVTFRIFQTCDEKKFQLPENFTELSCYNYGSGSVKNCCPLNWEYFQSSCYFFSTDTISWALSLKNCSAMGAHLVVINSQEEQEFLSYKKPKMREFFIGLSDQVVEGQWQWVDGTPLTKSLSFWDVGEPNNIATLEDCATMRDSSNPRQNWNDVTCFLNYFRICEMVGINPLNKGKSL
In words: Human CLR antagonist screening, NF-κB SEAP reporter in HEK293 cells. The conditions noted are these: antagonist mode, Ami 1 μM, +TDB 5 μg/mL, No Sample 6, Control− 1. The procedure:
Toll-Like Receptor (TLR), NOD-Like Receptor (NLR) and C-Type Lectin Receptor (CLR) stimulation were tested by assessing NF-κB activation in HEK293 cells expressing a given TLR, NLR or CLR. The activity of the test articles was tested at one concentration and compared to control ligands. These steps were performed in triplicate.
hMincle: Trehalose-6,6-dibehenate (TDB) at 10 μg/mL Antagonist: 5 μg/mL.
In a 96-well plate (200 μL total volume) containing the appropriate cells (50,000-75,000 cells/well), 20 μL of the test article or the positive control ligand was added to the wells. For the antagonist assay, the test article was incubated with the cells, at 37° C. with 5% CO2, for 30 minutes prior to the addition of the positive control ligand to the wells. The media added to the wells was designed for the detection of NF-κB induced SEAP expression. After a 16-24 hr incubation the optical density (OD) was read at 650 nm on a Molecular Devices SpectraMax 340PC absorbance detector.

SMILES strings stand for the structures.

T2 sequence (O00206 24-839): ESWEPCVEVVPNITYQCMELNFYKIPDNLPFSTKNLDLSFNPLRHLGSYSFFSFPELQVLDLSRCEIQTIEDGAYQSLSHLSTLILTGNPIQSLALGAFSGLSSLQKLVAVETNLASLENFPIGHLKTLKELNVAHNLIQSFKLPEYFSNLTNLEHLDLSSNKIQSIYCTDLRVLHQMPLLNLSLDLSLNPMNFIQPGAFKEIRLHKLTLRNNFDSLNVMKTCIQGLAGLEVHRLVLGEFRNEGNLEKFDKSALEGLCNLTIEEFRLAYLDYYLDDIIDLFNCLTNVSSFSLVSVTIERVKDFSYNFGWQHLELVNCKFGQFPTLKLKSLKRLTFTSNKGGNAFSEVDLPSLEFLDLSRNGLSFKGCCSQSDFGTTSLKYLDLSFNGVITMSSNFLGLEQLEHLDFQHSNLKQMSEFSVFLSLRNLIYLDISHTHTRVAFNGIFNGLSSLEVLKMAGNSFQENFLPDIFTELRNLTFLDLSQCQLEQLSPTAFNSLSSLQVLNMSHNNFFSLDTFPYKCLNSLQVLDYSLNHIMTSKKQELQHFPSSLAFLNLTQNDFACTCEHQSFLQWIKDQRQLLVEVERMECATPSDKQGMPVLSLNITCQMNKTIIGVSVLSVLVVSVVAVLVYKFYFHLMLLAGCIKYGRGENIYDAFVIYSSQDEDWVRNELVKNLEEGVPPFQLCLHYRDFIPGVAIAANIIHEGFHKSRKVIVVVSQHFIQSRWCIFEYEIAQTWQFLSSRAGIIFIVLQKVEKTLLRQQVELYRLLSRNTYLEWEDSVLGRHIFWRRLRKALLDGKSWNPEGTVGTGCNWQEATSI
T2 sequence (Q9Y6Y9 19-160): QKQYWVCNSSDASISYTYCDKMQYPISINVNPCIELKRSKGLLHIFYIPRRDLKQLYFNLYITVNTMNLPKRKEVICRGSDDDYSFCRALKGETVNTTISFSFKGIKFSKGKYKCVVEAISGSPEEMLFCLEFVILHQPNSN

Regarding `CNCCC=C1c2ccccc2CCc2ccccc21` [Nortriptyline], the “effect on TLR−/NLR− control cell lines” value in series [1] was “slight inhibitory effect”. Besides, the “Fold Induction” value at Human TLR3 is “slight inhibitory effect”; on Human TLR3 (listed as Nor), 12; at Human TLR4, 14.

Regarding `CN(C)CCC=C1c2ccccc2CCc2ccccc21` [Amitriptyline], the “Fold Induction” value was “slight inhibitory effect” on human Mincle; 5 on human Mincle (listed as Ami); “slight inhibitory effect” at Human TLR3; 12 at Human TLR3 (listed as Ami); “slight inhibitory effect” on Human TLR4; 12 on Human TLR4 (listed as Ami). Moreover, in series [1], the “effect on TLR−/NLR− control cell lines” value was “slight inhibitory effect”.
